Experimental data reported in patent US12398235B2, “Oligomeric epoxy pre-polymers comprising isosorbide units” (ROQUETTE FRERES, priority 2020, dated 2025).

System: bacterial strain (mutant bacterial colonies)
Test: Ames test of epoxy pre-polymers (mutagenic potential)
Format: cell-based
Conditions: number of mutant bacterial colonies from a given strain exposed to the compound, non-toxic at induction ratio of 2 or less
Description: In order to determine the mutagenic potential of the epoxy pre-polymers, an Ames test was carried out on different Mn and EEW epoxy resins. The results are expressed in induction levels, that is, the number of mutant bacterial colonies obtained from a given strain exposed to the compound. The resin is considered to be non-toxic in the case of an induction ratio of 2 or less.

With `C1OC1COC1COC2C(OCC3CO3)COC12` (stereo not shown) [IDGE 1* fraction, isosorbide diglycidylether] the Induction ratio was 20.2.
